Data published in paper PMC11584639 (Nature Communications, 2024).

Target: Bruton's tyrosine kinase (BTK) (Mus musculus, UniProt P35991)
Type: cell-based

Bruton's tyrosine kinase (BTK), sequence (P35991 2-659): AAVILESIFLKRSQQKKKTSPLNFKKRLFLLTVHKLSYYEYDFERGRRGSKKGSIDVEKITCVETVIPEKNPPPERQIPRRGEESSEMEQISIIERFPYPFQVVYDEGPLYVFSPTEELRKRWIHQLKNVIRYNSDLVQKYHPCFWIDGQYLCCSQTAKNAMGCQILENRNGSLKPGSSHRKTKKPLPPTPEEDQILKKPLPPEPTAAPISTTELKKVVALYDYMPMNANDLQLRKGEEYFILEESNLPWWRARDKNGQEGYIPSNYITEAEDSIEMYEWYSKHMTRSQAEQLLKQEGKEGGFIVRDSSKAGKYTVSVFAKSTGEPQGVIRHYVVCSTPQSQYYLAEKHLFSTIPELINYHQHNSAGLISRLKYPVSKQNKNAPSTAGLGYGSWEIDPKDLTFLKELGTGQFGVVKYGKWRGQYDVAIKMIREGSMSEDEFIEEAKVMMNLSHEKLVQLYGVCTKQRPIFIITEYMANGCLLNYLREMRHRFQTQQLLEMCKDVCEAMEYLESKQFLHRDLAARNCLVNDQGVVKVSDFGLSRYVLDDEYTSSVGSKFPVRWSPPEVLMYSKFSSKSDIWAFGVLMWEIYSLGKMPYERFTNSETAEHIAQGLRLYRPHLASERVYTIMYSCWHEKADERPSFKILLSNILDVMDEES

C=CC(=O)N1CCC[C@@H](n2c(=O)n(-c3ccc(Oc4ccccc4)cc3)c3c(N)nccc32)C1 [tolebrutinib]
pBTK-to-BTK ratio by Western blot in primary mouse microglia with or without com: This stimulus increased BTK phosphorylation, which was blocked by tolebrutinib
